Measured values from ChEMBL document CHEMBL3351981, “Eleganketal A, a highly oxygenated dibenzospiroketal from the marine-derived fungus Spicaria elegans KLA03” (J Nat Prod, 2014).
pIC50: −log10 of the molar value.

Assays:
K562 = assay: Cytotoxicity against human K562 cells; type: functional, cell-based
[1] = Cytotoxicity against human HL60 cells; type: functional, cell-based; conditions: HL-60
Influenza A virus = assay: Antiviral activity against influenza A virus (A/Puerto Rico/8/34(H1N1)) infected in MDCK cells assessed as inhibition of virus-induced cytopathic effect after 48 hrs by crystal violet staining assay; type: functional, organism-based; conditions: A/Puerto Rico/8/1934(H1N1)

Row | Compound | pIC50 (K562) | pIC50 [1] | pIC50 (Influenza A virus)
1 | COc1c(C)c2c(c(OC)c1OC)C(=O)[C@]1(OC2)OCc2c(C)c(OC)c(OC)c(OC)c21 | < 4.30 | < 4.30 | 
2 | COc1c(C)c2c(c(OC)c1OC)C(=O)[C@@]1(OC2)OCc2c(C)c(OC)c(OC)c(OC)c21 | < 4.30 | < 4.30 | 3.83
3 | COc1c(C)c2c(c(OC)c1OC)C(=O)C1(OC2)OCc2c(C)c(OC)c(OC)c(OC)c21 (racemic) | < 4.30 | < 4.30 | 
4 | NC(=O)c1ncn([C@@H]2O[C@H](CO)[C@@H](O)[C@H]2O)n1 [RIBAVIRIN] |  |  | 4.00
